These results are taken from ChEMBL document CHEMBL5329212, “In situ click chemistry-based discovery of 1,2,3-triazole-derived diarylpyrimidines as novel HIV-1 NNRTIs by exploiting the tolerant region I in binding pocket” (Bioorg Med Chem, 2023).

Converted amounts (≈) assume the structure as drawn.

For data set [1], the system named is Human immunodeficiency virus 1. The data set can be described thus: Antiviral activity against HIV-1 harboring RT Y188L mutant infected in human MT4 cells assessed as protection against virus-induced cytopathic effect measured after 5 days by MTT assay. The data set is classed as functional, organism-based. The conditions noted are these: Human immunodeficiency virus 1, MT4, 120 h. Background: Damage to the host cells serves as the signal in cytopathic effect assays.

In data set [2] the test system is Human immunodeficiency virus 1. As to the kind of experiment: Antiviral activity against HIV-1 harboring RT E138K mutant infected in human MT4 cells assessed as protection against virus-induced cytopathic effect measured after 5 days by MTT assay. It is filed as functional, organism-based. To be noted: Human immunodeficiency virus 1, MT4, 120 h.
The test system of data set [3] is Human immunodeficiency virus 1. As to the kind of experiment: Antiviral activity against HIV-1 harboring RT L100I mutant infected in human MT4 cells assessed as protection against virus-induced cytopathic effect measured after 5 days by MTT assay. To be noted: Human immunodeficiency virus 1, MT4, 120 h. It is filed as functional, organism-based.
The nature of data set [4]: Aqueous solubility of the compound at pH 7.0 at 0.1 to 10 mg. The data set is classed as physicochemical. The conditions noted are these: aqueous medium, dose 0.1-10 mg.
Data set [5] in a line: Aqueous solubility of the compound at pH 2 at 0.1 to 10 mg. To be noted: aqueous medium, dose 0.1-10 mg. The data set is classed as physicochemical.
The subject of data set [6] is Human immunodeficiency virus 1. The data set can be described thus: Antiviral activity against wild type HIV-1 IIIB infected in human MT4 cells assessed as protection against virus-induced cytopathic effect measured after 5 days by MTT assay. The data set is classed as functional, organism-based. The conditions noted are these: Human immunodeficiency virus 1, IIIB, MT4, 120 h.

In data set [7] the target is Human immunodeficiency virus type 1 reverse transcriptase (Human immunodeficiency virus 1, UniProt Q72547). The data set can be described thus: Inhibition of HIV-1 reverse transcriptase incubated for 1 hrs in presence of biotin-labeled dNTPs by ELISA assay. In general terms: An ELISA detects its analyte on a solid surface through an enzyme-linked reagent.
Data set [8] has as its system Human immunodeficiency virus 1. The data set can be described thus: Antiviral activity against HIV-1 harboring RT Y181C mutant infected in human MT4 cells assessed as protection against virus-induced cytopathic effect measured after 5 days by MTT assay. To be noted: Human immunodeficiency virus 1, MT4, 120 h. It is filed as functional, organism-based.
Data set [9] concerns Human immunodeficiency virus 1. As to the kind of experiment: Antiviral activity against HIV-1 harboring RT F227L/V106A double mutant infected in human MT4 cells assessed as protection against virus-induced cytopathic effect measured after 5 days by MTT assay. The data set is classed as functional, organism-based. To be noted: Human immunodeficiency virus 1, MT4, 120 h.
Data set [10] relates to Human immunodeficiency virus 1. The data set can be described thus: Antiviral activity against HIV-1 harboring RT K103N mutant infected in human MT4 cells assessed as protection against virus-induced cytopathic effect measured after 5 days by MTT assay. It is filed as functional, organism-based. The conditions noted are these: Human immunodeficiency virus 1, MT4, 120 h.
Data set [11] can be described thus: Cytotoxicity against human MT4 cells assessed as reduction in cell viability measured after 5 days by MTT assay. It is filed as toxicity, cell-based. The conditions noted are these: time 5 day.
The target in data set [12] is Human immunodeficiency virus type 1 reverse transcriptase (Human immunodeficiency virus 1) (UniProt Q72547). As to the kind of experiment: Inhibition of HIV-1 reverse transcriptase at 0.267 uM incubated for 1 hrs in presence of biotin-labeled dNTPs by ELISA assay relative to control.
The nature of data set [13]: Aqueous solubility of the compound at pH 7.4 at 0.1 to 10 mg. The data set is classed as physicochemical. The conditions noted are these: aqueous medium, dose 0.1-10 mg.
For data set [14], the system named is Human immunodeficiency virus 1. The data set can be described thus: Antiviral activity against HIV-1 harboring RT RES056 mutant infected in human MT4 cells assessed as protection against virus-induced cytopathic effect measured after 5 days by MTT assay. It is filed as functional, organism-based. To be noted: Human immunodeficiency virus 1, MT4, 120 h.
The nature of data set [15]: Half life in Wistar rat at 2 mg/kg, iv measured upto 8 hrs by LC-MS/MS analysis. It is filed as ADME, organism-based. To be noted: in vivo.

As for `Cc1cc(C#N)cc(C)c1Oc1nc(Nc2ccc(-c3cn(S(=O)(=O)n4ccnc4)nn3)cc2)nc2ccsc12`, the EC50 was found to be 0.25 µM in data set [1]; 0.03 µM in [2]; 0.08 µM in [3]; 0.01 µM in data set [6]; 0.16 µM in [8]; 0.26 µM in data set [9]. Moreover, the 50% effective concentration (EC50) in [10] is 0.01 µM; in data set [14], not below 5.64 µM. Further, the solubility in data set [4] turned out to be 64.7 µg/mL (≈ 114 µM); in [5], 102 µg/mL (≈ 179 µM); in [13] it was 44.2 µg/mL (≈ 77.6 µM). For the same compound, the IC50 in data set [7] was found to be 0.03 µM. Also, the cytotoxic concentration (CC50) at 120 h in [11] turned out to be 140 µM. Besides, the inhibition in data set [12] came to 66.5%.

As for `Cc1cc(C#N)cc(C)c1Oc1nc(NC2CCN(Cc3ccc(S(N)(=O)=O)cc3)CC2)nc2ccsc12`, in data set [12], the inhibition was found to be 39.1%. The compound also showed a half-life in data set [15] of 1.6 h.

Consider `Cc1cc(C#N)cc(C)c1Oc1nc(NC2CCN(Cc3ccc(S(N)(=O)=O)cc3)CC2)nc2scnc12`, for which the half-life in data set [15] was 0.9 h.

With `Cc1cc(C#N)cc(C)c1Oc1nc(NC2CCN(Cc3ccc(S(N)(=O)=O)cc3)CC2)nc2ncsc12`, the half-life in [15] was 2 h.

Take `Cc1cc(C#N)cc(C)c1Oc1nc(Nc2ccc(-c3cn(Cc4ccc(C(F)(F)F)cc4)nn3)cc2)nc2ccsc12`: the EC50 in [1] stood at 3.12 µM; in data set [2], 0.69 µM; in data set [3] it was 0.84 µM; in [6], 0.19 µM; in data set [8], 2.39 µM; in data set [9] it was 8.88 µM. For the same compound, the results for the concentration giving a half-maximal response (EC50) in [10] and in data set [14] were 0.33 µM and 25.5 µM, respectively. In addition, in data set [7], the IC50 was 0.45 µM. In [11], the CC50 at 120 h amounted to 88.2 µM. Also, the inhibition in data set [12] turned out to be 74.2%.

Regarding `Cc1cc(C#N)cc(C)c1Oc1nc(Nc2ccc(-c3cn(CCN4C(=O)c5ccccc5C4=O)nn3)cc2)nc2ccsc12`, the EC50 is not below 157 µM in data set [1]; 13.8 µM in [2]; 3.2 µM in [3]; 1.85 µM in data set [6]; 45.7 µM in data set [8]; 124 µM in [9]. In addition, the half-maximal effective concentration (EC50) in data set [10] is 2.11 µM; in data set [14], more than 204 µM. In addition, in [7], the half-inhibitory concentration (IC50) is 3.36 µM. Also, the CC50 at 120 h in data set [11] was more than 204 µM. The inhibition in [12] is 46.2%.

One may read the EC50 as the concentration that produces a half-maximal response. For orientation: solubility means the concentration that dissolves in the medium under given conditions. Lower therefore signals little dissolved substance. A word on the IC50: it is the point on the concentration scale where inhibition reaches its midpoint. By CC50 is commonly meant the concentration that lowers cell viability or growth by half. The term inhibition denotes the relative decrease from the control value, in per cent. What is called half-life is the time needed for the level to fall by half in the phase considered. The low end stands for fast loss, the high end for slow loss.
